Laboratory results taken from US20160000851A1, “Bioactive Botanical Compositions and Uses Thereof” (AKZO NOBEL CHEMICALS INTERNATIONAL B.V., priority 2013, published 2016).
Values after ≈ are worked out from the molar mass of the structure shown.

What was measured:
Assay type in all cases: cell-based
IL-1α [1] = assay: Inhibition of ethoxylated alcohol-induced IL-1α release in human epidermal keratinocytes (ELISA); conditions: HEK, ethoxylated alcohol 1000 μg/ml, 16 hours
Description: Treatment was conducted by incubation of HEK with ethoxylated alcohol (1000 μg/ml for induction of IL-1α as determined in Example 3) for 16 hours in presence of a range of concentrations of Recentia® CS, or Aspirin.
Treatment was conducted by incubation of HEK with ethoxylated alcohol (500 μg/ml for induction of IL-1α, as determined in Example 3) for 16 hours in presence of a range of concentrations of Recentia® CS, or conventional green tea preparation or conventional black tea preparation.

IL-1α [2] = assay: Inhibition of SDS-induced IL-1α release in human epidermal keratinocytes (ELISA); conditions: Keratinocyte, HEK, SDS 25 μg/ml, 16 hours, read-out: Estimated IC50 for inhibition of SDS-induced IL-1α release
IL-8 [3] = assay: Inhibition of SDS-induced IL-8 release in human epidermal keratinocytes (ELISA); conditions: HEK, SDS 6 μg/ml, 16 hours
Description: The protocols for the growth and treatment of human primary epidermal keratinocyte (HEK) cultures are as follows. HEK and all cell culture supplies were obtained from Life Technologies Co. (Carlsbad, Calif.). The cells were maintained in keratinocyte growth medium (KGM), which contains keratinocyte basal medium 154 (M154) and human keratinocyte growth supplements (HKGS). They were grown at 37° C. in an atmosphere of 5% (v/v) CO2 and used between passages from 2 to 4. For the treatment, keratinocytes were trypsinized by Trypsin 0.025%/EDTA 0.01% in Phosphate Buffered Saline, seeded in 96-well plates, and grown in KGM to about 80% confluence. The cells were then exposed to SDS (Sigma-Aldrich Co., St. Louis, Mo.) at various concentrations for about 16 hours. After incubation, the supernatants were collected, and IL-1α and IL-8 were quantified using Quantikine® ELISA (R&D Systems, Minneapolis, Minn.). […] IC50 was calculated using sigmoidal curve fitting with SigmaPlot Version 10.0 (Systat Software). […]
Treatment was conducted by incubation of HEK with SDS (25 μg/ml for induction of IL-1α or 6 μg/ml for induction of IL-8 as determined in Example 1) for 16 hours in presence of a range of concentrations of Recentia® CS, or conventional green tea preparation, or conventional black tea preparation.

IL-8 [4] = assay: Inhibition of basal level non-induced IL-8 release in human epidermal keratinocytes; conditions: HEK, 16 hours
Description: (§1) The protocols for the growth and treatment of human primary epidermal keratinocyte (HEK) cultures are as follows. HEK and all cell culture supplies were obtained from Life Technologies Co. (Carlsbad, Calif.). The cells were maintained in keratinocyte growth medium (KGM), which contains keratinocyte basal medium 154 (M154) and human keratinocyte growth supplements (HKGS). They were grown at 37° C. in an atmosphere of 5% (v/v) CO2 and used between passages from 2 to 4. For the treatment, keratinocytes were trypsinized by Trypsin 0.025%/EDTA 0.01% in Phosphate Buffered Saline, seeded in 96-well plates, and grown in KGM to about 80% confluence. The cells were then exposed to SDS (Sigma-Aldrich Co., St. Louis, Mo.) at various concentrations for about 16 hours. After incubation, the supernatants were collected, and IL-1α and IL-8 were quantified using Quantikine® ELISA (R&D Systems, Minneapolis, Minn.). Results were presented as the mean±standard deviation. IC50 was calculated using sigmoidal curve fitting with SigmaPlot Version 10.0 (Systat Software). LDH (lactate dehydrogenase) assay (G-Biosciences, St. Louis, Mo.) was performed on all the supernatants to assess cytotoxicity.
The protocols for the growth of HEK are described under Example 1.

IL-1α [5] = assay: Surfactant induction of IL-1α release in human epidermal keratinocytes; conditions: HEK, 16 hours, SDS at 25 μg/ml
Description: as §1
(§2) The protocols for the growth of HEK are described under Example 1. Instead of SDS, the keratinocytes were exposed to a range of concentrations of ethoxylated alcohol for about 16 hours.

IL-8 [6] = assay: Surfactant induction of IL-8 release in human epidermal keratinocytes; conditions: HEK, 16 hours, SDS at 6 μg/ml
Description: as §1, §2

[7] = system: human epidermal keratinocytes (HEK); assay: Mildness ranking of surfactants by LDH cytotoxicity and IL-1α release in HEK; conditions: based on LDH cytotoxicity and IL-1α induction in HEK
Description: as §1, with “cytotoxicity. […]” for “cytotoxicity.”

CC(=O)Oc1ccccc1C(=O)O [Aspirin]
Inhibition of ethoxylated alcohol-induced IL-1α release (in words) (IL-1α [1]): failed to inhibit IL-1α release induced by the ethoxylated alcohol | IC50 (IL-1α [2]): ~230 µg/mL (≈ 1280 µM) | Inhibition of SDS-induced IL-8 release (in words) (IL-8 [3]): did not inhibit SDS-induced release of inflammatory chemokine IL-8

C[S+]([O-])c1ccc(-c2nc(-c3ccncc3)c(-c3ccc(F)cc3)[nH]2)cc1 (stereo not shown) [SB203580]
Inhibition of basal level non-induced IL-8 release (in words) (IL-8 [4]): inhibited SDS-induced IL-8 only

CCCCCCCCCCCCOS(=O)(=O)[O-].[Na+] [SDS, Sodium Dodecyl Sulfate]
Induction of IL-1α release by surfactant (IL-1α [5]): significant (p<0.001) induction of IL-1α | Induction of IL-8 release by surfactant (IL-8 [6]): significant (p<0.001) induction of IL-8 | Mildness/harshness rank among six tested surfactants [7]: close to the harshest surfactant
